Measurements from patent US8389011B2, “Pharmaceutical compositions of cholesteryl ester transfer protein inhibitors” (Bend Research, Inc., priority 2000, dated 2013).

Assay: In vitro dissolution test, microcentrifuge method, in phosphate buffered saline (PBS) pH 6.5
Type: physicochemical
Method: The compositions comprising the CETP inhibitor and concentration-enhancing polymer provide enhanced concentration of the dissolved CETP inhibitor in in vitro dissolution tests. […] An appropriate PBS solution is an aqueous solution comprising 20 mM sodium phosphate (Na2HPO4), 47 mM potassium phosphate (KH2PO4), 87 mM NaCl, and 0.2 mM KCl, adjusted to pH 6.5 with NaOH. An appropriate MFD solution is the same PBS solution wherein additionally is present 7.3 mM sodium taurocholic acid and 1.4 mM of 1-palmitoyl-2-oleyl-sn-glycero-3-phosphocholine. In particular, a composition of the present invention can be dissolution-tested by adding it to MFD or PBS solution and agitating to promote dissolution.
Indeed, for some extremely insoluble CETP inhibitors, in order to identify the MDC achieved it may be necessary to use an amount of test composition such that if all of the CETP inhibitor dissolved, the CETP inhibitor concentration would be 10,000-fold or even more, that of the equilibrium concentration of the CETP inhibitor.
The MDC is taken to be the maximum value of dissolved CETP inhibitor measured over the duration of the test.
Filtration can be conducted using a 13 mm, 0.45 μm polyvinylidine difluoride syringe filter sold by Scientific Resources under the trademark TITAN®. Centrifugation is typically carried out in a polypropylene microcentrifuge tube by centrifuging at 13,000 G for 60 seconds. Other similar filtration or centrifugation methods can be employed and useful results obtained.
The spray-dried dispersions of Examples 6 and 7 were evaluated in an in vitro dissolution test using a microcentrifuge method. In this test, the spray-dried dispersion was added to a microcentrifuge tube for a Drug 2 dose of about 1000 μg/mL (7.2 mg for Example 6, 18 mg for Example 7). The tube was placed in a 37° C. sonicating bath, and 1.8 mL phosphate buffered saline (PBS) at pH 6.5 and 290 mOsm/kg was added. The samples were quickly mixed using a vortex mixer for about 60 seconds. The samples were centrifuged at 13,000 G at 37° C. for 1 minute. The resulting supernatant solution was then sampled and diluted 1:6 (by volume) with methanol and then analyzed by high-performance liquid chromatography (HPLC). The contents of the tubes were mixed on the vortex mixer and allowed to stand undisturbed at 37° C. until the next sample was taken. Samples were collected at 4, 10, 20, 40, 90, and 1200 minutes.
For Control 2, an in vitro dissolution test was performed using the procedures described above except that 1.8 mg of crystalline Drug 2 was used.
In this method, 7.2 mg of each spray-dried dispersion was added to a 2-mL microcentrifuge tube. The tube was placed in a 37° C. sonicating bath, and 1.8 mL of a phosphate-buffered saline (PBS) solution at pH 6.5 and 290 mOsm/kg was added, resulting in a TCmax of 400 μg/mL. The samples were quickly mixed using a combination of vortex mixer and sonication for about 90 seconds. The samples were centrifuged at 13,000 G at 37° C. for 1 minute. The resulting supernatant solution was then sampled and diluted 1:6 (by volume) with methanol and then analyzed by HPLC. The tubes were then mixed on the vortex mixer and allowed to stand undisturbed at 37° C. until the next sample. Samples were collected at 4, 10, 20, 40, 90 and 1200 minutes.
For Control 5, an in vitro dissolution test was performed using the procedure described above, except that 0.72 mg of non-crystalline Drug 3 was placed in a microcentrifuge tube and mixed with 1.8 mL of PBS.
In this method, 15 mg of each SDD was added to a 2-mL microcentrifuge tube. The tube was placed in a 37° C. sonicating bath, and 1.5 mL of a phosphate-buffered saline (PBS) solution at pH 6.5 and 290 mOsm/kg) was added, resulting in a TCmax of 1000 μg/mL. The samples were quickly mixed using a combination of vortex mixer and sonication for about 90 seconds.

[1] = Table 13, Drug 3, PBS, TCmax 400 μg/mL
[2] = PBS pH 6.5, 37° C., TCmax 1000 μg/mL, time 0 min
[3] = PBS pH 6.5, 37° C., TCmax 1000 μg/mL, time 4 min
[4] = PBS pH 6.5, 37° C., TCmax 1000 μg/mL, time 10 min
[5] = PBS pH 6.5, 37° C., TCmax 1000 μg/mL, time 20 min
[6] = PBS pH 6.5, 37° C., TCmax 1000 μg/mL, time 40 min
[7] = PBS pH 6.5, 37° C., TCmax 1000 μg/mL, time 90 min
[8] = Table 16, Drugs 4-9, PBS pH 6.5, 37° C., TCmax 1000 μg/mL

Row | SMILES | AUC [2] | Concentration [2] | AUC [3] | Concentration [3] | AUC [4] | Concentration [4] | AUC [5] | Concentration [5] | AUC [6] | Concentration [6] | AUC [7] | Concentration [7] | AUC90 [8] | Cmax, 90 [8] | further results
1 | CCCOC(=O)N1c2ccc(C(F)(F)F)cc2[C@@H](N(Cc2cc(C(F)(F)F)cc(C(F)(F)F)c2)C(=O)OC)C[C@H]1CC [Control 5, [2R,4S]4-[(3,5-bis-trifluoromethyl-benzyl)-methoxycarbonyl-amino]-2-ethyl-6-trifluoromethyl-3,4-dihydro-2H-quinoline-1-carboxylic acid propyl ester] |  |  |  |  |  |  |  |  |  |  |  |  |  |  | Concentration (Table 12, Drug 3, PBS pH 6.5, 37° C., 0 min, TCmax 400 μg/mL): 0 µg/mL; Concentration (Table 12, Drug 3, PBS pH 6.5, 37° C., 4 min, TCmax 400 μg/mL): <0.1 µg/mL; Concentration (Table 12, Drug 3, PBS pH 6.5, 37° C., 10 min, TCmax 400 μg/mL): <0.1 µg/mL; Concentration (Table 12, Drug 3, PBS pH 6.5, 37° C., 20 min, TCmax 400 μg/mL): <0.1 µg/mL; Concentration (Table 12, Drug 3, PBS pH 6.5, 37° C., 40 min, TCmax 400 μg/mL): <0.1 µg/mL; Concentration (Table 12, Drug 3, PBS pH 6.5, 37° C., 90 min, TCmax 400 μg/mL): <0.1 µg/mL; AUC (Table 12, Drug 3, PBS pH 6.5, 37° C., to 0 min, TCmax 400 μg/mL): 0 min-μg/mL; AUC (Table 12, Drug 3, PBS pH 6.5, 37° C., to 4 min, TCmax 400 μg/mL): <0.4 min-μg/mL; AUC (Table 12, Drug 3, PBS pH 6.5, 37° C., to 10 min, TCmax 400 μg/mL): <1.0 min-μg/mL; AUC (Table 12, Drug 3, PBS pH 6.5, 37° C., to 20 min, TCmax 400 μg/mL): <2.0 min-μg/mL; AUC (Table 12, Drug 3, PBS pH 6.5, 37° C., to 40 min, TCmax 400 μg/mL): <4.0 min-μg/mL; AUC (Table 12, Drug 3, PBS pH 6.5, 37° C., to 90 min, TCmax 400 μg/mL): <9.0 min-μg/mL; AUC90 [1]: <9.0 min-μg/mL; Cmax, 90 [1]: <0.1 µg/mL
2 | CCOC(=O)N1c2cc(OC)c(OC)cc2[C@@H](N(Cc2cc(C(F)(F)F)cc(C(F)(F)F)c2)C(=O)OC)C[C@H]1C [Control 6, [2R,4S]4-[(3,5-bis-trifluoromethyl-benzyl)-methoxycarbonyl-amino]-6,7-dimethoxy-2-methyl-3,4-dihydro-2H-quinoline-1-carboxylic acid ethyl ester] | 0 min-μg/mL | 0 µg/mL | <4 min-μg/mL | <1 µg/mL | <10 min-μg/mL | <1 µg/mL | <20 min-μg/mL | <1 µg/mL | <40 min-μg/mL | <1 µg/mL | <90 min-μg/mL | <1 µg/mL | <90 min-μg/mL | <1 µg/mL | 
3 | CCOC(=O)N1c2cc(CC)c(CC)cc2[C@@H](N(Cc2cc(C(F)(F)F)cc(C(F)(F)F)c2)C(=O)OC)C[C@H]1C [Control 7, [2R,4S]4-[(3,5-bis-trifluoromethyl-benzyl)-methoxycarbonyl-amino]-6,7-diethyl-2-methyl-3,4-dihydro-2H-quinoline-1-carboxylic acid ethyl ester] | 0 min-μg/mL | 0 µg/mL | <4 min-μg/mL | <1 µg/mL | <10 min-μg/mL | <1 µg/mL | <20 min-μg/mL | <1 µg/mL | <40 min-μg/mL | <1 µg/mL | <90 min-μg/mL | <1 µg/mL | <90 min-μg/mL | <1 µg/mL | 
4 | CCOC(=O)N1c2cc3c(cc2[C@@H](N(Cc2cc(C(F)(F)F)cc(C(F)(F)F)c2)C(=O)OC)C[C@H]1C)CCC3 [Control 8, [2R,4S]4-[(3,5-bis-trifluoromethyl-benzyl)-methoxycarbonyl-amino]-2-methyl-2,3,4,6,7,8-hexahydro-cyclopenta[g]quinoline-1-carboxylic acid ethyl ester] |  |  | <4 min-μg/mL | <1 µg/mL | <10 min-μg/mL | <1 µg/mL | <20 min-μg/mL | <1 µg/mL | <40 min-μg/mL | <1 µg/mL | <90 min-μg/mL | <1 µg/mL | <90 min-μg/mL | <1 µg/mL | 
5 | COC(=O)N(Cc1cc(C(F)(F)F)cc(C(F)(F)F)c1)[C@H]1C[C@@H](C2CC2)N(C(=O)OC(C)C)c2ccc(C(F)(F)F)cc21 [Control 10, [2S,4S]4-[(3,5-bis-trifluoromethyl-benzyl)-methoxycarbonyl-amino]-2-cyclopropyl-6-trifluoromethyl-3,4-dihydro-2H-quinoline-1-carboxylic acid isopropyl ester] | 0 min-μg/mL | 0 µg/mL | <4 min-μg/mL | <1 µg/mL | <10 min-μg/mL | <1 µg/mL | <20 min-μg/mL | <1 µg/mL | <40 min-μg/mL | <1 µg/mL | <90 min-μg/mL | <1 µg/mL | <90 min-μg/mL | <1 µg/mL | 
6 | CC1(C)Cc2nc(C3CCCC3)c([C@@H](F)c3ccc(C(F)(F)F)cc3)c(-c3ccc(F)cc3)c2[C@@H](O)C1 [Control 11, [3S,5S]2-cyclopentyl-4-(4-fluoro-phenyl)-3-[fluoro-(4-trifluoromethyl-phenyl)-methyl]-7,7-dimethyl-5,6,7,8-tetrahydro-quinolin-5-ol] | 0 min-μg/mL | 0 µg/mL | <4 min-μg/mL | <1 µg/mL | <10 min-μg/mL | <1 µg/mL | <20 min-μg/mL | <1 µg/mL | <40 min-μg/mL | <1 µg/mL | <90 min-μg/mL | <1 µg/mL | <90 min-μg/mL | <1 µg/mL | 
